ChEMBL document CHEMBL2440034, “Towards new C6-rigid S-DABO HIV-1 reverse transcriptase inhibitors: synthesis, biological investigation and molecular modeling studies” (Bioorg Med Chem, 2013)

Columns and labels:
[1] = Selectivity index, ratio of CC50 for human MT4 cells to EC50 for wild type HIV-1 3B infected in human MT4 cells; assay type: toxicity, cell-based; conditions: read-out: Ratio CC50/EC50
[2] = Cytotoxicity against human MT4 cells assessed as cell viability after 5 days by MTT assay; assay type: cell-based
[3] = system: Human immunodeficiency virus 2; assay: Antiviral activity against HIV-2 ROD infected in human MT4 cells assessed as protection against virus-induced cytopathogenicity after 5 days by MTT assay; assay type: functional, organism-based; conditions: Human immunodeficiency virus 2, ISOLATE ROD, MT4, 120 h
[4] = system: Human immunodeficiency virus 1; assay: Antiviral activity against HIV-1 RESO56 harboring RT K103N/Y181C double mutant infected in human MT4 cells assessed as protection against virus-induced cytopathogenicity after 5 days by MTT assay; assay type: functional, organism-based; conditions: Human immunodeficiency virus 1, RESO56, MT4, 120 h
[5] = system: Human immunodeficiency virus 1; assay: Antiviral activity against wild type HIV-1 3B infected in human MT4 cells assessed as protection against virus-induced cytopathogenicity after 5 days by MTT assay; assay type: functional, organism-based; conditions: Human immunodeficiency virus 1, 3B, MT4, 120 h
[6] = target: Human immunodeficiency virus type 1 reverse transcriptase (Human immunodeficiency virus 1, UniProt Q72547); assay: Inhibition of recombinant wild type HIV-1 reverse transcriptase p66/p51 expressed in Escherichia coli JM109 using poly(rA)/oligo(dT)16 (1:1.2) as template/primer after 40 mins by spectrofluorometric analysis
[7] = system: Human immunodeficiency virus 1; assay: Potency index, ratio of DDI EC50 to compound EC50 for wild type HIV-1 3B infected in human MT4 cells; assay type: functional

## COc1ccc(CSc2nc(C(=O)c3cccc(Cl)c3)c(C)c(=O)[nH]2)cc1
[1]
  selectivity ratio: 21
[2]
  CC50 at 120 h: 152 µM
[3]
  EC50: > 152 µM
[4]
  EC50: > 152 µM
[5]
  EC50: 7.21 µM

## COc1ccc(CSc2nc(C(=O)c3ccc(Cl)cc3)c(C)c(=O)[nH]2)cc1
[2]
  CC50 at 120 h: ≥ 151 µM
[3]
  EC50: > 151 µM
[5]
  EC50: ≥ 151 µM

## COc1ccc(CSc2nc(C(=O)c3cccc(Br)c3)c(C)c(=O)[nH]2)cc1
[1]
  selectivity ratio: 13
[2]
  CC50 at 120 h: 201 µM
[3]
  EC50: > 201 µM
[4]
  EC50: > 201 µM
[5]
  EC50: 16 µM

## COc1ccc(CSc2nc(C(=O)c3ccc(Br)cc3)c(C)c(=O)[nH]2)cc1
[1]
  selectivity ratio: ≤ 1
[2]
  CC50 at 120 h: 252 µM
[3]
  EC50: > 252 µM
[5]
  EC50: ≥ 252 µM

## COc1ccc(CSc2nc(C(=O)c3ccccc3F)c(C)c(=O)[nH]2)cc1
[6]
  IC50: 2.41 µM
[1]
  selectivity ratio: 124
[2]
  CC50 at 120 h: 175 µM
[3]
  EC50: > 175 µM
[4]
  EC50: > 175 µM
[5]
  EC50: 1.4 µM

## COc1ccc(CSc2nc(C(=O)c3cccc(F)c3)c(C)c(=O)[nH]2)cc1
[1]
  selectivity ratio: 35
[2]
  CC50 at 120 h: 225 µM
[3]
  EC50: > 225 µM
[4]
  EC50: > 225 µM
[5]
  EC50: 6.35 µM

## COc1ccc(CSc2nc(C(=O)c3ccc(F)cc3)c(C)c(=O)[nH]2)cc1
[2]
  CC50 at 120 h: ≥ 325 µM
[3]
  EC50: > 325 µM
[5]
  EC50: ≥ 325 µM

## CCc1c(C(=O)c2cccc(Br)c2)nc(SCc2ccc(OC)cc2)[nH]c1=O
[1]
  selectivity ratio: 84
[2]
  CC50 at 120 h: 98.9 µM
[3]
  EC50: > 98.9 µM
[4]
  EC50: > 98.9 µM
[5]
  EC50: 1.18 µM

## CCc1c(C(=O)c2cccc(F)c2)nc(SCc2ccc(OC)cc2)[nH]c1=O
[7]
  Ratio EC50: 50
[6]
  IC50: 0.19 µM
[1]
  selectivity ratio: 436
[2]
  CC50 at 120 h: 167 µM
[3]
  EC50: > 167 µM
[4]
  EC50: > 167 µM
[5]
  EC50: 0.38 µM

## COc1ccc(CSc2nc(C(=O)c3ccc(Br)cc3)c(C(C)C)c(=O)[nH]2)cc1
[1]
  selectivity ratio: ≤ 1
[2]
  CC50 at 120 h: 42.5 µM
[3]
  EC50: > 42.5 µM
[5]
  EC50: ≥ 42.5 µM

## COc1ccc(CSc2nc(C(=O)c3ccccc3F)c(C(C)C)c(=O)[nH]2)cc1
[7]
  Ratio EC50: 50
[6]
  IC50: 0.072 µM
[1]
  selectivity ratio: 145
[2]
  CC50 at 120 h: 38.2 µM
[3]
  EC50: > 38.2 µM
[4]
  EC50: > 38.2 µM
[5]
  EC50: 0.27 µM

## COc1ccc(CSc2nc(C(=O)c3cccc(F)c3)c(C(C)C)c(=O)[nH]2)cc1
[7]
  Ratio EC50: 50
[6]
  IC50: 0.04 µM
[1]
  selectivity ratio: 472
[2]
  CC50 at 120 h: 132 µM
[3]
  EC50: > 132 µM
[4]
  EC50: > 132 µM
[5]
  EC50: 0.29 µM

## COc1ccc(CSc2nc(C(=O)c3ccc(F)cc3)c(C(C)C)c(=O)[nH]2)cc1
[1]
  selectivity ratio: 21
[2]
  CC50 at 120 h: 135 µM
[3]
  EC50: > 135 µM
[4]
  EC50: > 135 µM
[5]
  EC50: 6.52 µM

## COc1ccc(CSc2nc(C(=O)c3ccc(C(C)(C)C)cc3)c(C)c(=O)[nH]2)cc1
[1]
  selectivity ratio: ≤ 1
[2]
  CC50 at 120 h: 126 µM
[3]
  EC50: > 126 µM
[5]
  EC50: ≥ 126 µM

## COc1ccc(CSc2nc(C(=O)c3ccc(F)c(F)c3)c(C)c(=O)[nH]2)cc1
[1]
  selectivity ratio: ≤ 1
[2]
  CC50 at 120 h: 127 µM
[3]
  EC50: > 127 µM
[4]
  EC50: > 127 µM
[5]
  EC50: ≥ 127 µM

## COc1ccc(CSc2nc(C(=O)c3cc(F)cc(F)c3)c(C)c(=O)[nH]2)cc1
[1]
  selectivity ratio: 32
[2]
  CC50 at 120 h: 86.9 µM
[3]
  EC50: > 86.9 µM
[4]
  EC50: > 86.9 µM
[5]
  EC50: 2.71 µM

## CCc1c(C(=O)c2cc(F)cc(F)c2)nc(SCc2ccc(OC)cc2)[nH]c1=O
[7]
  Ratio EC50: 50
[6]
  IC50: 0.16 µM
[1]
  selectivity ratio: 541
[2]
  CC50 at 120 h: 139 µM
[3]
  EC50: > 139 µM
[4]
  EC50: > 139 µM
[5]
  EC50: 0.26 µM

## CC(C)Nc1cccnc1N1CCN(C(=O)c2cc3cc(NS(C)(=O)=O)ccc3[nH]2)CC1 [DELAVIRDINE]
[1]
  selectivity ratio: 379
[2]
  CC50 at 120 h: 36.2 µM
[4]
  EC50: > 36.2 µM
[5]
  EC50: 0.095 µM

## O=c1[nH]cnc2c1ncn2[C@H]1CC[C@@H](CO)O1 [DIDANOSINE]
[1]
  selectivity ratio: 12
[2]
  CC50 at 120 h: 212 µM
[3]
  EC50: 15.3 µM
[5]
  EC50: 17.2 µM

## O=C1Nc2ccc(Cl)cc2[C@@](C#CC2CC2)(C(F)(F)F)O1 [EFAVIRENZ]
[2]
  CC50 at 120 h: 6.34 µM
[4]
  EC50: 0.46 µM
[5]
  EC50: 0.0067 µM

## Cc1ccnc2c1NC(=O)c1cccnc1N2C1CC1 [NEVIRAPINE]
[2]
  CC50 at 120 h: 15 µM
[4]
  EC50: 1.97 µM
[5]
  EC50: 0.084 µM

## Nc1ccn([C@H]2CC[C@@H](CO)O2)c(=O)n1 [ZALCITABINE]
[1]
  selectivity ratio: 208
[2]
  CC50 at 120 h: 94.7 µM
[5]
  EC50: 0.46 µM

## Cc1cn([C@H]2C[C@H](N=[N+]=[N-])[C@@H](CO)O2)c(=O)[nH]c1=O [ZIDOVUDINE]
[1]
  selectivity ratio: 15800
[3]
  EC50: 0.0064 µM
[4]
  EC50: 0.0066 µM
[5]
  EC50: 0.0059 µM
